Data from patent US9328163B2, “Post-translationally modified neurotrophin antibodies” (INSTITUT PASTEUR, priority 2006, dated 2016).

Columns and labels:
[1] = test system: motor neurons; test: Purified motor neuron cultures, motor neuron survival by direct counting; type: cell-based, rat; conditions: for induction of motor neuron death: BSA 100 ng/mL, FGF-1 or FGF-2 10 ng/mL previously treated with peroxynitrite 1 mM
Protocol: Media and sera were purchased from Gibco-Invitrogen. Motor neuron cultures were prepared from embryonic day 15 (E15) rat spinal cord by a combination of metrizamide gradient centrifugation and immunopanning with a monoclonal antibody directed against rat p 75^NTR (mouse mAb Ig192) as previously described. Motor neurons were plated at a density of 350 cells/cm^2 on 4 well multidishes (Nunclon) precoated with polyornithine-laminin. Cultures were maintained in Neurobasal™ medium supplemented with 2% horse serum, […] L-glutamate, 25 μM 2-mercaptoethanol, 0.5 mM L-glutamine, and 2% B-27 supplement (Gibco-Invitrogen). Motor neuron survival was maintained by the addition of GDNF (1 ng/mL; Sigma) to the culture media. Motor neuron death induced by trophic factor deprivation (NONE, without GDNF) was determined in all experiments as a control, and never was greater than 50%. Treatments with the different reagents were performed 3 hours after motor neuron plating. Motor neuron survival was assessed after 48 hours by direct counting of all cells displaying intact neurites longer than 4-cell bodies in diameter, in a prefixed area of the dish.
(§1) Treatment with antisense oligonucleotides to down-regulate p75^NTR expression was performed as described previously. Briefly, HPLC-purified phosphorothioate antisense and missense oligonucleotides (5 μM; Integrated DNA Technologies) were added to the cell suspension of purified motor neurons and repeatedly pipetted before seeding. The oligonucleotides were present the whole time of culture. To determine the efficiency of uptake, cultures were incubated with p75^NTR antisense oligonucleotides with a 5′ 56-FAM fluorescent label. Cells were transferred to the heated stage (37° C.) of a Zeiss LSM510 confocal microscope with constant 5% CO2. Fluorescence was imaged with a 63× oil immersion objective. Uptake efficiency was >96% in all experiments. Sequences used were: p75^NTR antisense, 5′-ACCTGCCCTCCTCATTGCA-3′ (SEQ ID NO: 5) and p 75^NTR missense, 5′-CTCCCACTCGTCATTCGAC-3′ (SEQ ID NO: 6).

[2] = test system: purified motor neurons; test: Uptake of fluorescently labelled antisense oligonucleotides (confocal microscopy); type: cell-based, rat; conditions: antisense oligonucleotides with 5′ 56-FAM fluorescent label; all experiments
Protocol: as §1

[3] = test system: NGF; test: Tyrosine nitration and oligomerization of NGF by peroxynitrite (SDS-PAGE, Western blot anti-nitrotyrosine); type: biochemical, mouse; conditions: urate 20 to 1000 μM; peroxynitrite 1 mM
Protocol: Peroxynitrite concentration was determined spectrophotometrically at 302 nm (ε=1,670 M^−1 cm^−1). Diluted stock solutions were freshly prepared in 0.01 M NaOH. The reactions of NGF (Harlan; Indianapolis, USA) with different concentrations of peroxynitrite (0.25 mM to 2 mM) was performed at a protein concentration of 0.2 mg/mL to 1.0 mg/mL obtaining similar results. The reaction was performed in 50 mM sodium phosphate buffer, pH 7.4, containing 20 mM sodium bicarbonate. NGF was subjected to 10 bolus addition of peroxynitrite (1 μL each) to reach the desired final concentration of peroxynitrite. One bolus of peroxynitrite stock solution was rapidly added on the top of the test tube and mixed by vortexing for 3 sec. The procedure was repeated 10 times. To exclude a potential non-specific effect of peroxynitrite treatment because of pH changes or contaminants, control experiments were performed using diluted NaOH or decomposed peroxynitrite (reverse order addition, ROA). Treatment of bovine serum albumin (Sigma), FGF-1 (Sigma) and FGF-2 (R&D Systems) with peroxynitrite was performed as described above at a concentration of 0.2 mg/mL.
SDS-PAGE was performed in 15% polyacrylamide minigels under reducing conditions. Samples were boiled for 5 min in LaemLi buffer before running. Proteins were visualized by Coomassie Blue or Silver staining. […]

[4] = test system: Dorsal root ganglia explants; test: Neurite outgrowth from dorsal root ganglia explants (GAP-43 immunofluorescence); type: cell-based; conditions: 100 ng/mL; 24 hours; E15 rat embryo ganglia
Protocol: Dorsal root ganglia explants from E15 rat embryos (that express both TrkA and p75^NTR) were cultured in Neurobasal media in the absence of trophic factors (NONE) or in the presence of NGF (100 ng/mL), NGF treated with peroxynitrite (100 ng/mL; nitroNGF-P) or NGF treated with tetranitromethane (nitroNGF-TNM). After 24 hours cultures were fixed with 4% paraformaldehyde and processed for immunofluorescence against GAP-43.

[5] = cultures maintained with GDNF (1 ng/mL), no exogenous nitric oxide, 48 h

peroxynitrite treated-FGF-2: FGF-2 (R&D Systems) treated with peroxynitrite
induction of motor neuron death ([1]; 48 h): did not induce motor neuron death
induction of motor neuron death ([1]; 48 h, listed as nitro-FGF-2): do not exert any apoptotic effect

COC(=O)CC[C@H](NC(=O)[C@H](CC(=O)OC)NC(=O)OCc1ccccc1)C(=O)N[C@H](C(=O)N[C@@H](CC(=O)OC)C(=O)CF)C(C)C [DEVD-fmk]
effect on motor neuron loss induced by peroxynitrite-treated NGF ([1]; DEVD-fmk 10 μM added every 24 hours, NGF-ONOO^− 100 ng/mL, 48 h): blocked

antisense: phosphorothioate p75^NTR antisense, 5′-ACCTGCCCTCCTCATTGCA-3′ (SEQ ID NO: 5) (DNA, all phosphorothioate, methylation of C not given here; further chemistry not fully specified)
uptake efficiency [2]: > 96%
effect on motor neuron apoptosis induced by native NGF in the presence of nitric oxide ([1]; oligonucleotides 5 μM, NGF 100 ng/mL plus DETA-NONOate 10 μM, 48 h): blocked
effect on apoptosis induced by peroxynitrite-treated NGF ([1]; oligonucleotides 5 μM, NGF-ONOO^− 100 ng/mL, 48 h): completely prevented
effect on loss of motor neurons induced by NGF-ONOO^− or NGF+NO ([1]; oligonucleotides added at plating, NGF-ONOO^− 100 ng/mL or NGF 100 ng/mL plus DETA-NONOate 10 μM, 48 h): completely blocked the loss of motor neurons

peroxynitrite treated-FGF-1: FGF-1 (Sigma) treated with peroxynitrite
induction of motor neuron death ([1]; 48 h): did not induce motor neuron death
induction of motor neuron death ([1]; 48 h, listed as nitro-FGF-1): do not exert any apoptotic effect

peroxynitrite treated-BSA: bovine serum albumin (Sigma) treated with peroxynitrite
induction of motor neuron death ([1]; 48 h): did not induce motor neuron death

O=C(O)c1ccc(/C2=C3\C=CC(=N3)/C(c3ccc(C(=O)O)cc3)=c3/cc/c4[n]3[Mn]([Cl])[n]3c2ccc3/C(c2ccc(C(=O)O)cc2)=C2/C=CC(=N2)\C=4c2ccc(C(=O)O)cc2)cc1 [MnTBAP]
effect on motor neuron loss induced by peroxynitrite-treated NGF ([1]; MnTBAP 100 μM, NGF-ONOO^− 100 ng/mL, 48 h): prevented

Oc1nc(O)c2nc(O)[nH]c2n1 [urate]
effect on tyrosine nitration and oligomerization of NGF [3]: prevented tyrosine nitration and oligomerization of NGF in a dose dependent manner
effect on motor neuron loss induced by peroxynitrite-treated NGF ([1]; urate 100 nM added to culture, NGF-ONOO^− 100 ng/mL, 48 h): did not prevent motor neuron loss
effect on apoptotic activity of peroxynitrite-treated NGF ([1]; urate 200 μM present during peroxynitrite (1 mM) treatment of NGF, NGF 100 ng/mL, 48 h): abolished the apoptotic effect

peroxynitrite-treated NGF: NGF (Harlan) treated with peroxynitrite; nitrated (Tyr52, Trp99), elutes as dimer, tetramer and octamer
neurite growth compared to NGF [4]: increased neurite growth
peroxynitrite concentration at which NGF apoptotic activity reaches a plateau ([1]; NGF 10 ng/mL previously treated with indicated peroxynitrite concentrations, 48 h): higher than 0.5 mM
motor neuron loss ([1]; at 1 pg/mL in the presence of nitric oxide (DETA-NONOate 10 μM), 48 h): 33%
concentration inducing motor neuron death (as low as) ([1]; cultures maintained with GDNF (1 ng/mL), no exogenous nitric oxide, survival 48 h after treatment): 1 ng/mL
increase of potency to induce apoptosis of motor neurons ([1]; in the presence of nitric oxide, versus NGF): 10,000 fold
apoptotic activity relative to unmodified native NGF ([1]; through p75^NTR): 10,000 fold
concentration significantly inducing motor neuron loss ([1]; together with nitric oxide (NGF-ONOO^−+NO)): 1 pg/mL

COC(=O)[C@@H](N)CCCNC(=N)N[N+](=O)[O-] [L-NAME]
effect on motor neuron loss induced by peroxynitrite-treated NGF ([1]; L-NAME 1 mM, NGF-ONOO^− 100 ng/mL, 48 h): prevented

B1: NGF-ROA: control NGF treated with decomposed peroxynitrite (reverse order addition) (protein, UniProt P01139 122-241, looked up)
Beta-nerve growth factor: SSTHPVFHMGEFSVCDSVSVWVGDKTTATDIKGKEVTVLAEVNINNSVFRQYFFETKCRASNPVESGCRGIDSKHWNSYCTTTHTFVKALTTDEKQAAWRFIRIDTACVCVLSRKATRRG
modifications: Beta-nerve growth factor treated with decomposed peroxynitrite
effect on motor neuron survival [1, 5]: did not affect motor neuron survival
concentration significantly inducing motor neuron loss ([1]; in the presence of nitric oxide <50 nM from DETA-NONOate (10 μM), 48 h): higher than 10 ng/mL

B2: TNM-treated NGF: NGF (Harlan) treated with 40-fold molar excess of tetranitromethane; nitrated at Tyr52 and Tyr79 (protein)
chain: SSTHPVFHMGEFSVCDSVSVWVGDKTTATDIKGKEVTVLAEVNINNSVFRQYFFETKCRASNPVESGCRGIDSKHWNSYCTTTHTFVKALTTDEKQAAWRFIRIDTACVCVLSRKATR
neurite growth compared to NGF [4]: increased neurite growth
motor neuron loss ([1]; in the absence of nitric oxide, 48 h): 32%

B3: NGF: nerve growth factor, commercially available murine NGF (Harlan), non-nitrated (protein, listed as Mus musculus)
chain: SSTHPVFHMGEFSVCDSVSVWVGDKTTATDIKGKEVTVLAEVNINNSVFRQYFFETKCRASNPVESGCRGIDSKHWNSYCTTTHTFVKALTTDEKQAAWRFIRIDTACVCVLSRKATR
effect on motor neuron survival [1, 5]: not sensitive
